Measured values from US9605064B2, “Methods and compositions for treatment of skin disorders” (AbbVie Biotechnology Ltd, priority 2006, dated 2017).
Values joined by “and” are separate entries in the source; they are usually repeats but may differ in a detail not shown here. Equal values may be shown once. Marks after values point to notes of the source that are not given here.

Test system: patients with moderate to severe chronic plaque psoriasis
Experiment: PASI response, Phase II 12-week placebo-controlled trial with 48-week extension
Assay type: in vivo, human
Conditions: for Number of Patients Who Qualified for Dosage Escalation: 40 mg eow (n = 12); for PASI 50 (% patients) After Dose Escalation / PASI 75 (% patients) After Dose Escalation / PASI 90 (% patients) After Dose Escalation: escalation from eow to weekly dosing
Excerpt: Efficacy outcome measures included PASI and PGA.
The two primary clinical outcome measures used in this study were the psoriasis area and severity index (PASI) and the physician's global assessment (PGA). PASI improvement of greater than or equal to 75% (used as an endpoint in psoriasis clinical trials) at week 12 was the primary efficacy outcome measure for this study. PASI is a composite index indicating severity for three main signs of psoriatic plaques (erythema, scaling, and thickness), weighted by the amount of coverage of these plaques in four main body areas, i.e., head, trunk, upper extremities, and lower extremities. PASI scores, which range from 0-72, with higher scores indicating greater severity, were assessed at screening, baseline, week 1, week 2, week 4, week 8, week 12/early termination, and follow-up.
Skin and safety outcomes were assessed up to Week 60.
Analytical methods included the following: • Analyses of clinical data were performed on a modified intention-to-treat population (ITT). […] Patients whose dosages were increased on or after Week 24 were considered non-responders; • Patients with similar percentage PASI improvement across treatment arms were pooled into four strata: PASI<50, PASI 50-74, PASI 75-99, and PASI 100; and • Week-60 distribution of DLQI scores, mean DLQI scores, and mean change in DLQI from Week 0-60 were calculated within each stratum.
Frequently used as an endpoint in psoriasis clinical trials, the PASI [25] was the primary efficacy outcome in this trial. PASI is a composite index indicating the severity of the three main signs of psoriatic plaques (i.e., erythema, scaling, and thickness) and is weighted by the amount of coverage of these plaques in the four main body areas (head, trunk, upper extremities, and lower extremities). PASI scores range from 0-72, with higher scores indicating greater disease severity. PASI was assessed at screening and baseline, at Weeks 1, 2, 4, 8, and 12/Early Termination, and at the final follow-up visit.
At week 12, placebo patients received an 80-mg loading dose, then 40 mg every other week. […] Patients who receive the rescue therapy were considered non-responders in this analysis.

[1] = 40 mg eow, Week 60, modified ITT, NRI
[2] = 40 mg weekly, Week 60, modified ITT, NRI
[3] = (placebo→eow+eow) group, week 60, observed analysis
[4] = Efficacy at Weeks 24-60 (n = 22)
[5] = Week 12, adalimumab 40 mg eow, modified ITT, NRI
[6] = Week 12, adalimumab 40 mg weekly, modified ITT, NRI
[7] = Week 24, adalimumab 40 mg eow, modified ITT, NRI
[8] = Week 24, adalimumab 40 mg weekly, modified ITT, NRI
[9] = Week 24, placebo/adalimumab 40 mg eow (adalimumab from Week 12), modified ITT, NRI
[10] = Week 36, adalimumab 40 mg eow, modified ITT, NRI
[11] = Week 36, adalimumab 40 mg weekly, modified ITT, NRI
[12] = Week 36, placebo/adalimumab 40 mg eow (adalimumab from Week 12), modified ITT, NRI
[13] = Week 60, adalimumab 40 mg eow, modified ITT, NRI

Adalimumab: a human anti-TNF mAb, described in U.S. Pat. No. 6,090,382 as D2E7 (HUMIRA, Abbott Laboratories)
Number of Patients Who Qualified for Dosage Escalation (Week 24): 9 | Number of Patients Who Qualified for Dosage Escalation (Week 28): 1 | Number of Patients Who Qualified for Dosage Escalation (Week 32): 0 | Number of Patients Who Qualified for Dosage Escalation (Week 44): 1 | Number of Patients Who Qualified for Dosage Escalation (Week 52): 0 | Number of Patients Who Qualified for Dosage Escalation (Week 60): 1 | patients with sustained, clinically significant improvement (40 mg eow dosing): ~80% | Overall PASI 75 response rate (40 mg eow, Week 12, modified ITT, NRI): 53* % of Patients | Overall PASI 75 response rate (40 mg eow, Week 24, modified ITT, NRI): 64 % of Patients | Overall PASI 75 response rate (40 mg eow, Week 36, modified ITT, NRI): 64 % of Patients | Overall PASI 75 response rate [1]: 58 % of Patients and 56 % of Patients | PASI 50 response rate [1]: 64 % Patients | PASI 90 response rate [1]: 33 % Patients | PASI 100 response rate [1]: 16 % Patients | Overall PASI 75 response rate (40 mg eow, Week 60, modified ITT, NRI, listed as adalimumab): 58 % of Patients | mean percentage PASI improvement (40 mg every other week dosage of placebo/adalimumab, week 60): 69% | mean percentage PASI improvement (40 mg of adalimumab alone, on a weekly basis, week 60): 69% | Overall PASI 75 response rate (40 mg weekly, Week 12, modified ITT, NRI): 80* % of Patients | Overall PASI 75 response rate (40 mg weekly, Week 24, modified ITT, NRI): 72 % of Patients | Overall PASI 75 response rate (40 mg weekly, Week 36, modified ITT, NRI): 68 % of Patients | Overall PASI 75 response rate [2]: 64 % of Patients | PASI 50 response rate [2]: 66 % Patients | PASI 90 response rate [2]: 48 % Patients | PASI 100 response rate [2]: 26 % Patients | mean percentage PASI improvement (40 mg weekly, week 60): 84% | PASI 75-99 response rate [3]: 38 | PASI 100 response rate [3]: 17 | PASI 75 Response at Week 60, patients eligible for dose escalation (Adalimumab 40 mg eow (n = 9)): 22% (2/9) | PASI 50 (% patients) After Dose Escalation (Efficacy at Week 60 (n = 22)): 36% | PASI 75 (% patients) After Dose Escalation (Efficacy at Week 60 (n = 22)): 18% | PASI 90 (% patients) After Dose Escalation (Efficacy at Week 60 (n = 22)): 0% | PASI 50 (% patients) After Dose Escalation [4]: 55% | PASI 75 (% patients) After Dose Escalation [4]: 23% | PASI 90 (% patients) After Dose Escalation [4]: 5% | PASI 75 Response at Week 60, patients eligible for dose escalation (Placebo/Adalimumab 40 mg eow (n = 13)): 15% (2/13) | Percentages of Patients with > PASI 75 Response (Week 12, 40 mg eow (Table 79)): 53% | Percentages of Patients with > PASI 75 Response (Week 12, 40 mg weekly (Table 79)): 80% | Percentage of patients who achieved PASI 100 (Week 12, adalimumab 40 mg eow, NRI): 11* % | PASI 50 (% patients) [5]: 76% | Percentage of patients who achieved PASI 75 [5]: 53% | Percentage of patients who achieved PASI 90 [5]: 24% | Percentage of patients who achieved PASI 100 (Week 12, adalimumab 40 mg weekly, NRI): 26* % | PASI 50 (% patients) [6]: 88% | Percentage of patients who achieved PASI 75 [6]: 80% | Percentage of patients who achieved PASI 90 [6]: 48% | Patients Eligible for Dose Escalation (<PASI 50 response), number (Week 24, Adalimumab 40 mg eow (n = 9)): 5 | Patients Eligible for Dose Escalation (<PASI 50 response), number (Week 24, Placebo/Adalimumab 40 mg eow (n = 13)): 5 | Percentage of patients who achieved PASI 100 (Week 24, adalimumab 40 mg eow, NRI): 13% | Percentage of patients who achieved PASI 75 [7]: 64% | Percentage of patients who achieved PASI 90 [7]: 42% | Percentage of patients who achieved PASI 100 (Week 24, adalimumab 40 mg weekly, NRI): 24% | Percentage of patients who achieved PASI 75 [8]: 72% | Percentage of patients who achieved PASI 90 [8]: 62% | Percentage of patients who achieved PASI 100 (Week 24, placebo/adalimumab 40 mg eow (adalimumab from Week 12), NRI): 11% | Percentage of patients who achieved PASI 75 [9]: 55% | Percentage of patients who achieved PASI 90 [9]: 32% | Patients Eligible for Dose Escalation (<PASI 50 response), number (Week 28, Adalimumab 40 mg eow (n = 9)): 1 | Patients Eligible for Dose Escalation (<PASI 50 response), number (Week 28, Placebo/Adalimumab 40 mg eow (n = 13)): 2 | Patients Eligible for Dose Escalation (<PASI 50 response), number (Week 32, Adalimumab 40 mg eow (n = 9)): 0 | Patients Eligible for Dose Escalation (<PASI 50 response), number (Week 32, Placebo/Adalimumab 40 mg eow (n = 13)): 2 | Percentage of patients who achieved PASI 100 (Week 36, adalimumab 40 mg eow, NRI): 22% | Percentage of patients who achieved PASI 75 [10]: 64% | Percentage of patients who achieved PASI 90 [10]: 49% | Percentage of patients who achieved PASI 100 (Week 36, adalimumab 40 mg weekly, NRI): 36% | Percentage of patients who achieved PASI 75 [11]: 68% | Percentage of patients who achieved PASI 90 [11]: 58% | Percentage of patients who achieved PASI 100 (Week 36, placebo/adalimumab 40 mg eow (adalimumab from Week 12), NRI): 19% | Percentage of patients who achieved PASI 75 [12]: 62% | Percentage of patients who achieved PASI 90 [12]: 43% | Patients Eligible for Dose Escalation (<PASI 50 response), number (Week 44, Adalimumab 40 mg eow (n = 9)): 1 | Patients Eligible for Dose Escalation (<PASI 50 response), number (Week 44, Placebo/Adalimumab 40 mg eow (n = 13)): 1 | Patients Eligible for Dose Escalation (<PASI 50 response), number (Week 52, Adalimumab 40 mg eow (n = 9)): 0 | Patients Eligible for Dose Escalation (<PASI 50 response), number (Week 52, Placebo/Adalimumab 40 mg eow (n = 13)): 3 | Patients Eligible for Dose Escalation (<PASI 50 response), number (Week 60, Adalimumab 40 mg eow (n = 9)): 2 | Patients Eligible for Dose Escalation (<PASI 50 response), number (Week 60, Placebo/Adalimumab 40 mg eow (n = 13)): 0 | Percentage of patients who achieved PASI 100 (Week 60, adalimumab 40 mg eow, NRI): 16% | PASI 50 (% patients) [13]: 67% | Percentage of patients who achieved PASI 75 [13]: 58% | Percentage of patients who achieved PASI 90 [13]: 33% | Percentage of patients who achieved PASI 100 (Week 60, adalimumab 40 mg weekly, NRI): 26%
